The values below come from publication PMC5785958, “New role of phenothiazine derivatives as peripherally acting CB1 receptor antagonizing anti-obesity agents” (Scientific Reports, 2018).

In data set [1] the test system is Wistar rats. In words: Acute hypophagic response in 24 h food-deprived rats. The conditions noted are these: for effect on food intake (in words): 2 h. The format is in vivo, rat. The protocol:
As a preliminary screening, the synthesized compounds were evaluated for acute hypophagia in rats and the results are summarized in Fig. 5. Twenty four hour food deprived Wistar rats were given weighed amounts of food pellets after administration of the test compounds. Quantum of food consumed by the control group of animals was considered as 100%.
Male Wistar rats weighing 200–250 g were used in the present study to assess the acute hypophagic response. Animals were housed individually in a plexi-glass cage in a temperature and humidity controlled room with a 12 h light/dark cycle. Standard chow pellets and water were made available ad libitum. Animals were handled daily for a week before performing the actual experiments. The animal study protocol was approved by the Institutional Animal Ethics Committee (IAEC) of Faculty of Pharmacy, The Maharaja Sayajirao University of Baroda (Approval no. MSU/IAEC/2014-15/1401). The experiments were conducted in accordance to the guidelines of CPCSEA (Committee for the Purpose of Control and Supervision of Experiments on Animals), Ministry of Environment & Forests, Govt. of India. We tried our best to reduce the number of animals and their suffering.
The acute effect of the synthesized test compounds on feeding behavior was assessed in 24 h food-deprived animals. Before performing the experiments, the bedding material was removed from the cage. The animals were deprived of feed for 24 h with free access to water. The fasted animals were administered with the test compounds (10 mg/kg, p.o.). After 30 min of administration, weighed amounts of food pellets were served to the animals. Amount of food pellets and food spillage remaining after 2 h were weighed to find out the amount of food consumed by the animals.

Data set [2] in a line: PAMPA-BBB in vitro permeability assay. More on the design: key to Prediction (penetration in CNS): CNS- indicates low passive CNS permeation. As to conditions: for Prediction (penetration in CNS): from PAMPA-BBB Pe, Pe less than 3.8 × 10^−6 cm s^−1 = low BBB permeation; for Papp at 120 min, 100 µg/ml: pig, PAMPA-BBB, porcine brain lipid, PBS/ethanol (70:30), 25 °C, mean ± SEM of three experiments, read-out: Pe. In kind it is in vitro ADME, porcine. The protocol:
As discussed above, BBB permeation of the available CB1 receptor antagonists limits their therapeutic utility. A successful CB1 receptor antagonist to be used as anti-obesity agent must be devoid of BBB permeability. […] In this study, the ability of the test compounds to cross the BBB was determined by the well established in vitro model PAMPA-BBB assay. This simple and rapid model has the advantage to predict passive BBB permeation with high accuracy[57],[58]. The in vitro permeability (Pe) of the test compounds through the lipid extract of porcine brain was determined in PBS/ethanol (70:30).
To assess the in vivo brain permeability potential of the test compounds, PAMPA assay for BBB was performed as reported by Di. et al.[57]. The donor microplate (polyvinylidene fluoride (PVDF) membrane, diameter 25 mm, pore size 0.45 µm Millipore) and the acceptor microplate were used for the experiment. The acceptor microplate was filled with 200 µl phosphate buffer saline (PBS) and ethanol in the ratio of 70:30 whereas the donor microplate filter surface was impregnated with porcine brain lipid (Avanti Polar Lipids) in dodecane (Sigma) (4 µl of 20 mg/ml). 200 µl of the test compound (100 µg/ml in PBS/ethanol) was added to the donor well. A sandwich was formed by placing the donor plate carefully on the acceptor plate, and the plates were kept undisturbed for 120 min at 25 °C. The donor plate was carefully detached after the incubation period and concentration of the test compound in the acceptor wells was determined using UV spectroscopy. Each sample was analyzed in four wells at five different wavelengths, and at least in three independent runs. Assay validation was performed by using nine commercial quality standard drugs of known BBB permeability[75] in which the reported permeability values of the standards were compared with their experimental permeability values, which gave a linear relationship, Pe(exp.) = 1.171Pe(bibl.) + 1.489 (R^2 = 0.983)[57],[58].

Setting [3] is: 24 h fasted male Wistar rats, 10 mg/kg p.o.
Where [4] appears, read: 24 h fasted male Wistar rats, 10 mg/kg p.o., food served after 30 min, intake over 2 h.

In general, melting point refers to the temperature, or range, at which the solid turns liquid.

Consider `N#Cc1cnc(SCC(=O)N2c3ccccc3Sc3ccc(C(F)(F)F)cc32)nc1N` [Compound 5, 4-Amino-2-(2-(2-trifluoromethyl-10H-phenothiazin-10-yl)-2-oxoethylthio)pyrimidine-5-carbonitrile], for which the melting point fell in the range of 218 to 220 °C. Moreover, the “effect on food intake (in words)” value in data set [1] (setting [3]) is listed as “weak short acting hypophagic activity”. The “food intake (control = 100%)” value in data set [1] (24 h fasted male Wistar rats, 10 mg/kg p.o., food served after 30 min, intake over 2 h, 10 mg/kg) is reported as 62–74%. In addition, in data set [1] (po, 10 mg/kg), the “food intake (control = 100%)” value came out at 62%. Further, in data set [2], the “Prediction (penetration in CNS)” value is recorded as “CNS-” and the Papp at 120 min, 100 µg/ml is 2.78 ± 0.14 ×10⁻⁶ cm/s.

`N#Cc1cnc(SCC(=O)N2c3ccccc3Sc3ccc(Cl)cc32)nc1N` [Compound 22, 4-Amino-2-(2-(2-chloro-10H-phenothiazin-10-yl)-2-oxoethylthio)pyrimidine-5-carbonitrile]: the melting point was in the range of 222 to 224 °C. In data set [1] (setting [4]), the “food intake (control = 100%)” value is 62–74%. Moreover, in data set [2], the “Prediction (penetration in CNS)” value is on record as “CNS-” and the Papp at 120 min, 100 µg/ml was 2.28 ± 0.11 ×10⁻⁶ cm/s.

Turning to `N#Cc1cnc(SCC(=O)N2c3ccccc3Sc3ccccc32)nc1N` [Compound 24, 4-Amino-2-(2-oxo-2-(10H-phenothiazin-10-yl)ethylthio)pyrimidine-5-carbonitrile], the melting point was 241 to 243 °C.

The molecule `CCOC(=O)c1cnc(SCC(=O)N2c3ccccc3Sc3ccc(Cl)cc32)nc1N` [Compound 26, Ethyl 4-amino-2-(2-(2-chloro-10H-phenothiazin-10-yl)-2-oxoethylthio)pyrimidine-5-carboxylate] returned a melting point of 156 to 158 °C. Besides, the “food intake (control = 100%)” value in data set [1] (setting [4]) was 62–74%. For the same molecule, in data set [2], the “Prediction (penetration in CNS)” value is reported as “CNS-” and the Papp at 120 min, 100 µg/ml is 3.66 ± 0.67 ×10⁻⁶ cm/s.

Molecule `CCOC(=O)c1cnc(SCC(=O)N2c3ccccc3Sc3ccccc32)nc1N` [Compound 28, Ethyl 4-amino-2-(2-oxo-2-(10H-phenothiazin-10-yl)ethylthio)pyrimidine-5-carboxylate] displayed a melting point of 202 to 204 °C.

For the molecule `O=C(CSc1nnc(-c2ccncc2)o1)N1c2ccccc2Sc2ccc(C(F)(F)F)cc21` [Compound 29, 2-(5-(4-Pyridyl)-1,3,4-oxadiazol-2-ylthio)-1-(2-trifluoromethyl-10H-phenothiazin-10-yl)ethanone], the melting point is 156 to 158 °C.

For the molecule `O=C(CSc1nnc(-c2ccncc2)o1)N1c2ccccc2Sc2ccc(Cl)cc21` [Compound 30, 1-(2-Chloro-10H-phenothiazin-10-yl)-2-(5-(4-pyridyl)-1,3,4-oxadiazol-2-ylthio)ethanone], the melting point lay within 194 to 196 °C.

For `COc1ccc2c(c1)N(C(=O)CSc1nnc(-c3ccncc3)o1)c1ccccc1S2` [Compound 31, 1-(2-Methoxy-10H-phenothiazin-10-yl)-2-(5-(4-pyridyl)-1,3,4-oxadiazol-2-ylthio)-ethanone], the melting point lay within 166 to 168 °C.

Molecule `O=C(CSc1nnc(-c2ccncc2)o1)N1c2ccccc2Sc2ccccc21` [Compound 32, 1-(10H-Phenothiazin-10-yl)-2-(5-(4-pyridyl)-1,3,4-oxadiazol-2-ylthio)ethanone] returned a melting point of 212 to 214 °C. Also, the “effect on food intake (in words)” value in data set [1] (setting [3]) is “no effect on food intake”. In addition, in data set [1] (setting [4]), the “food intake (control = 100%)” value is recorded as 80–99%. For the same molecule, in data set [2], the “Prediction (penetration in CNS)” value was “CNS-” and the Papp at 120 min, 100 µg/ml was 3.22 ± 0.63 ×10⁻⁶ cm/s.

In turn, `Nn1c(SCC(=O)N2c3ccccc3Sc3ccc(C(F)(F)F)cc32)nnc1-c1ccncc1` [Compound 33, 2-(4-Amino-5-(4-pyridyl)-4H-1,2,4-triazol-3-ylthio)-1-(2-(trifluoromethyl)-10H-phenothiazin-10-yl)ethanone] registered a melting point of 202 to 204 °C. For the same molecule, the “effect on food intake (in words)” value in data set [1] (setting [3]) was “did not impact the food intake”. For the same molecule, in data set [1] (setting [4]), the “food intake (control = 100%)” value was 80–99%. Moreover, in data set [2], the “Prediction (penetration in CNS)” value is “CNS-” and the Papp at 120 min, 100 µg/ml is 1.05 ± 0.22 ×10⁻⁶ cm/s.

In the case of `COc1ccc2c(c1)N(C(=O)CSc1nnc(-c3ccncc3)n1N)c1ccccc1S2` [Compound 35, 2-(4-Amino-5-(4-pyridyl)-4H-1,2,4-triazol-3-ylthio)-1-(2-methoxy-10H-phenothiazin-10-yl)ethanone], the melting point lay within 188 to 190 °C.

On to `Nn1c(SCC(=O)N2c3ccccc3Sc3ccccc32)nnc1-c1ccncc1` [Compound 36, 2-(4-Amino-5-(4-pyridyl)-4H-1,2,4-triazol-3-ylthio)-1-(10H-phenothiazin-10-yl)ethanone], for which the melting point is 232 to 234 °C.

As to `N#Cc1cnc(SCCCN2c3ccccc3Sc3ccc(C(F)(F)F)cc32)nc1N` [Compound 42, 4-Amino-2-(3-(2-trifluoromethyl-10H-phenothiazin-10-yl)propylthio)pyrimidine-5-carbonitrile], the melting point fell in the range of 164 to 166 °C. For the same molecule, the “effect on food intake (in words)” value in data set [1] (setting [3]) is “no effect on the food intake”. Moreover, the “food intake (control = 100%)” value in data set [1] (setting [4]) is on record as 80–99%. For the same molecule, in data set [2], the “Prediction (penetration in CNS)” value is “CNS-” and the Papp at 120 min, 100 µg/ml was 2.6 ± 0.18 ×10⁻⁶ cm/s.

Take `N#Cc1cnc(SCCCN2c3ccccc3Sc3ccc(Cl)cc32)nc1N` [Compound 43, 4-Amino-2-(3-(2-chloro-10H-phenothiazin-10-yl)propylthio)pyrimidine-5-carbonitrile]: the melting point lay in the range of 138 to 140 °C. Further, the “food intake (control = 100%)” value in data set [1] (setting [4]) is reported as 62–74%. Moreover, in data set [2], the “Prediction (penetration in CNS)” value is reported as “CNS-” and the Papp at 120 min, 100 µg/ml was 3.47 ± 0.66 ×10⁻⁶ cm/s.

With `COc1ccc2c(c1)N(CCCSc1ncc(C#N)c(N)n1)c1ccccc1S2` [Compound 44, 4-Amino-2-(3-(2-methoxy-10H-phenothiazin-10-yl)propylthio)pyrimidine-5-carbonitrile], the melting point lay in the range of 158 to 160 °C. In data set [1] (setting [4]), the “food intake (control = 100%)” value is on record as 62–74%. Further, in data set [2], the “Prediction (penetration in CNS)” value was “CNS-” and the Papp at 120 min, 100 µg/ml is 3.58 ± 0.73 ×10⁻⁶ cm/s.

Take `N#Cc1cnc(SCCCN2c3ccccc3Sc3ccccc32)nc1N` [Compound 45, 4-Amino-2-(3-(10H-phenothiazin-10-yl)propylthio)pyrimidine-5-carbonitrile]: the melting point lay within 117 to 119 °C.

For `CCOC(=O)c1cnc(SCCCN2c3ccccc3Sc3ccc(C(F)(F)F)cc32)nc1N` [Compound 46, Ethyl 4-amino-2-(3-(2-trifluoromethyl-10H-phenothiazin-10-yl)propylthio)pyrimidine-5-carboxylate], the melting point was in the range of 118 to 120 °C. Also, the “food intake (control = 100%)” value in data set [1] (setting [4]) is 62–74%. Further, in data set [2], the “Prediction (penetration in CNS)” value is “CNS-” and the Papp at 120 min, 100 µg/ml is 2.84 ± 0.28 ×10⁻⁶ cm/s.

Molecule `CCOC(=O)c1cnc(SCCCN2c3ccccc3Sc3ccc(Cl)cc32)nc1N` [Compound 47, Ethyl 4-amino-2-(3-(2-chloro-10H-phenothiazin-10-yl)propylthio)pyrimidine-5-carboxylate] gave a melting point of 120 to 122 °C. The “food intake (control = 100%)” value in data set [1] (setting [4]) is given as 62–74%. Further, in data set [2], the “Prediction (penetration in CNS)” value was “CNS-” and the Papp at 120 min, 100 µg/ml was 3.28 ± 0.38 ×10⁻⁶ cm/s.

With `CCOC(=O)c1cnc(SCCCN2c3ccccc3Sc3ccc(OC)cc32)nc1N` [Compound 48, Ethyl 4-amino-2-(3-(2-methoxy-10H-phenothiazin-10-yl)propylthio)pyrimidine-5-carboxylate], the melting point is 106 to 108 °C.

`CCOC(=O)c1cnc(SCCCN2c3ccccc3Sc3ccccc32)nc1N` [Compound 49, Ethyl 4-amino-2-(3-(10H-phenothiazin-10-yl)propylthio)pyrimidine-5-carboxylate] returned a melting point of 146 to 148 °C.
